What was measured:
maize hybrid P33G26 = assay: Test G maize injury with safener-treated seed; details: absence of any safener; rates ranging from 140 to 1120 g/ha
Procedure, shortened: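 Maize hybrid P33G26 seed, treated with dichlormid, fenchlorazole-ethyl or naphthalic anhydride or left untreated, was sown in soil pots, then sprayed pre-emergence with several compound rates at 310 L/ha. Plants grew in a greenhouse (14 h day, about 27/24 °C day/night), with 4–5 replicates. Injury was scored visually against untreated controls 28 days after application.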

[1] = system: Panicum dichotomiflorum (PANDI); assay: Test F preemergence, alone and in mixture with rimsulfuron, PANDI; format: in vivo; details: 21 days after treatment, 0-100 scale
Method: (§1) Abutilon theophrasti (ABUTH), Chenopodium album (CHEAL), Amaranthus rudis (AMATA), Setaria faberii (SETFA), Panicum dichotomiflorum (PANDI), and Digitaria sanguinalis (DIGSA) were grown from seed in pots of an artificial potting mixture in a greenhouse. Compounds of the present invention were applied at 70 and 105 g ai/ha preemergence. Rimsulfuron was applied at 8.8 and 17.5 g ai/ha. Mixtures of the compounds of the present invention and rimsulfuron were also applied.
(§2) Following application, the plants were maintained by watering as needed. A fertilizer solution of Peter's 20-20-20 (10 pounds/5 gallons of water) plus Sprint 330, a Iron Chelate micronutrient, (113.5 grams/5 gallons of water) was injected into the water with an Anderson fertilizer injection system to provide approximately 219 ppm of nitrogen with each watering. Artificial lighting was used to supplement natural light to produce a 14 hour photoperiod and: an additional one hour light period was used between 1:00 am to 2:00 am for a night interruption. Greenhouse temperatures were targeted for 27° C. in the day and 21° C. at night. At 21 days after treatment, all plants were evaluated for injury as compared to control plants that were sprayed only with non-phytotoxic solvent.
(§3) Colby's equation was used to calculate the expected additive herbicidal effect of the mixtures of Compound 21 and the mixture partners listed above. […]

[2] = system: Chenopodium album (CHEAL); assay: Test F preemergence, alone and in mixture with rimsulfuron, CHEAL; format: in vivo; details: 21 days after treatment, 0-100 scale
Method: as §1, §2, §3

field bindweed = assay: Test C postemergence field bindweed; format: in vivo, Convolvulus arvensis; details: 0 to 100 scale, 0 no effect, 100 complete control
Procedure, shortened: (§4)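 Postemergence spray; formulation = non-phytotoxic solvent + surfactant; soil 60:40 sandy loam:greenhouse potting mix; greenhouse, ~14–21 d; visual rating vs untreated, 0–100 (100 = complete control).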

purple nutsedge = assay: Test C postemergence purple nutsedge; format: in vivo, Cyperus rotundus; details: 0 to 100 scale, 0 no effect, 100 complete control
Method: (§5) Compounds evaluated in this test were formulated in a non-phytotoxic solvent mixture which included a surfactant and applied to plants that were grown for various periods of time before treatment (postemergence application). A mixture of sandy loam soil and greenhouse potting mix in a 60:40 ratio was used for the postemergence test.
(§6) Plantings of these crops and weed species were adjusted to produce plants of appropriate size for the postemergence test. All plant species were grown using normal greenhouse practices. Crop and weed species include arrowleaf sida (Sida rhombifolia), barnyardgrass (Echinochloa crus-galli), cocklebur (Xanthium strumarium), common ragweed (Ambrosia elatior), corn (Zea mays), cotton (Gossypium hirsutum), eastern black nightshade (Solanum ptycanthum), fall panicum (Panicum dichotomiflorum), field bindweed (Convolvulus arvensis), giant foxtail (Setaria faberii), hairy beggarticks (Bidens pilosa), ivyleaf morningglory (Ipomoea hederacea), johnsongrass (Sorghum halepense), ladysthumb smartweed (Polygonum persicaria), lambsquarters (Chenopodium album), large crabgrass (Digitaria sanguinalis), purple nutsedge (Cyperus rotundus), redroot pigweed (Amaranthus retroflexus), soybean (Glycine max), surinam grass (Brachiaria decumbens), velvetleaf (Abutilon theophrasti) and wild poinsettia (Euphorbia heterophylla).
(§7) Treated plants and untreated controls were maintained in a greenhouse for approximately 14, to 21 days, after which all treated plants were compared to untreated controls and visually evaluated. Plant response ratings, summarized in Table C, were based upon a 0 to 100 scale where 0 was no effect and 100 was complete control. A dash response (−) means no test result.

[3] = system: Digitaria sanguinalis (DIGSA); assay: Test F preemergence, alone and in mixture with rimsulfuron, DIGSA; format: in vivo; details: 21 days after treatment, 0-100 scale
Method: as §1, §2, §3

ivyleaf morningglory = assay: Test C postemergence ivyleaf morningglory; format: in vivo, Ipomoea hederacea; details: 0 to 100 scale, 0 no effect, 100 complete control
Method: as §5, §6, §7

fall panicum = assay: Test C postemergence fall panicum; format: in vivo, Panicum dichotomiflorum; details: 0 to 100 scale, 0 no effect, 100 complete control
Procedure, shortened: as §4

eastern black nightshade = assay: Test C postemergence eastern black nightshade; format: in vivo, Solanum ptycanthum; details: 0 to 100 scale, 0 no effect, 100 complete control
Method: as §5, §6, §7

redroot pigweed = assay: Test C postemergence redroot pigweed; format: in vivo, Amaranthus retroflexus; details: 0 to 100 scale, 0 no effect, 100 complete control
Procedure, shortened: as §4

[4] = system: Abutilon theophrasti (ABUTH); assay: Test F preemergence, alone and in mixture with rimsulfuron, ABUTH; format: in vivo; details: 21 days after treatment, 0-100 scale
Method: as §1, §2, §3

soybean = assay: Test C postemergence soybean; format: in vivo, Glycine max; details: 0 to 100 scale, 0 no effect, 100 complete control
Method: as §5, §6, §7

velvetleaf = assay: Test C postemergence velvetleaf; format: in vivo, Abutilon theophrasti; details: 0 to 100 scale, 0 no effect, 100 complete control
Method: as §5, §6, §7

cocklebur = assay: Test C postemergence cocklebur; format: in vivo, Xanthium strumarium; details: 0 to 100 scale, 0 no effect, 100 complete control
Method: as §5, §6, §7

Setaria faberii (SETFA) = assay: Test F preemergence, alone and in mixture with rimsulfuron, SETFA; format: in vivo; details: 21 days after treatment, 0-100 scale
Method: as §1, §2, §3

ladysthumb smartweed = assay: Test C postemergence ladysthumb smartweed; format: in vivo, Polygonum persicaria; details: 0 to 100 scale, 0 no effect, 100 complete control
Method: as §5, §6, §7

lambsquarters = assay: Test C postemergence lambsquarters; format: in vivo, Chenopodium album; details: 0 to 100 scale, 0 no effect, 100 complete control
Method: as §5, §6, §7

[5] = Alone: Cmpd. rate 70, Rimsulfuron 0
[6] = Alone: Cmpd. rate 105, Rimsulfuron 0

CC(C)N(C(=O)n1oc(=O)n(-c2ccccc2OC(F)(F)F)c1=O)c1ccc(F)cc1 [Compound 14]
Injury to maize (maize hybrid P33G26): severely injurious to maize

CC(C)N(C(=O)n1oc(=O)n(C(C)C)c1=O)c1ccccc1 [Compound 113]
PANDI Observed [1, 5]: 100% | PANDI Observed [1, 6]: 95% | CHEAL Observed [2, 5]: 15% | CHEAL Observed [2, 6]: 35% | Plant response rating Field bindweed (field bindweed; Rate 140 g/ha): 0 | Plant response rating Field bindweed (field bindweed; Rate 280 g/ha): 0 | Plant response rating Field bindweed (field bindweed; Rate 560 g/ha): 50 | Plant response rating Field bindweed (field bindweed; Rate 1120 g/ha): 50 | Plant response rating, Purple nutsedge (purple nutsedge; Rate 140 g/ha): 0 | Plant response rating, Purple nutsedge (purple nutsedge; Rate 280 g/ha): 10 | Plant response rating, Purple nutsedge (purple nutsedge; Rate 560 g/ha): 0 | Plant response rating, Purple nutsedge (purple nutsedge; Rate 1120 g/ha): 10 | DIGSA Observed [3, 5]: 95% | DIGSA Observed [3, 6]: 70% | Plant response rating I. morningglory (ivyleaf morningglory; Rate 140 g/ha): 10 | Plant response rating I. morningglory (ivyleaf morningglory; Rate 280 g/ha): 50 | Plant response rating I. morningglory (ivyleaf morningglory; Rate 560 g/ha): 50 | Plant response rating I. morningglory (ivyleaf morningglory; Rate 1120 g/ha): 50 | Plant response rating Fall panicum (fall panicum; Rate 140 g/ha): 60 | Plant response rating Fall panicum (fall panicum; Rate 280 g/ha): 80 | Plant response rating Fall panicum (fall panicum; Rate 560 g/ha): 85 | Plant response rating Fall panicum (fall panicum; Rate 1120 g/ha): 85 | Plant response rating E. blacknightsh (eastern black nightshade; Rate 140 g/ha): 50 | Plant response rating E. blacknightsh (eastern black nightshade; Rate 280 g/ha): 50 | Plant response rating E. blacknightsh (eastern black nightshade; Rate 1120 g/ha): 95 | Plant response rating, Redroot pigweed (redroot pigweed; Rate 140 g/ha): 0 | Plant response rating, Redroot pigweed (redroot pigweed; Rate 280 g/ha): 0 | Plant response rating, Redroot pigweed (redroot pigweed; Rate 560 g/ha): 0 | Plant response rating, Redroot pigweed (redroot pigweed; Rate 1120 g/ha): 90 | ABUTH Observed [4, 5]: 45% | ABUTH Observed [4, 6]: 65% | Plant response rating, Soybean (soybean; Rate 140 g/ha): 40 | Plant response rating, Soybean (soybean; Rate 280 g/ha): 70 | Plant response rating, Soybean (soybean; Rate 560 g/ha): 85 | Plant response rating, Soybean (soybean; Rate 1120 g/ha): 85 | Plant response rating, Velvetleaf (velvetleaf; Rate 140 g/ha): 0 | Plant response rating, Velvetleaf (velvetleaf; Rate 280 g/ha): 0 | Plant response rating, Velvetleaf (velvetleaf; Rate 560 g/ha): 60 | Plant response rating, Velvetleaf (velvetleaf; Rate 1120 g/ha): 75 | Plant response rating, Cocklebur (cocklebur; Rate 140 g/ha): 5 | Plant response rating, Cocklebur (cocklebur; Rate 280 g/ha): 50 | Plant response rating, Cocklebur (cocklebur; Rate 560 g/ha): 50 | Plant response rating, Cocklebur (cocklebur; Rate 1120 g/ha): 50 | SETFA Observed (Setaria faberii (SETFA); [5]): 60% | SETFA Observed (Setaria faberii (SETFA); [6]): 65% | Plant response rating Ladysthumb (ladysthumb smartweed; Rate 140 g/ha): 0 | Plant response rating Ladysthumb (ladysthumb smartweed; Rate 280 g/ha): 0 | Plant response rating Ladysthumb (ladysthumb smartweed; Rate 560 g/ha): 85 | Plant response rating Ladysthumb (ladysthumb smartweed; Rate 1120 g/ha): 85 | Plant response rating Lambsquarters (lambsquarters; Rate 140 g/ha): 0 | Plant response rating Lambsquarters (lambsquarters; Rate 560 g/ha): 20 | Plant response rating Lambsquarters (lambsquarters; Rate 1120 g/ha): 50

From patent publication US6737383B1, “Herbicidal oxadiazolidines” (priority 1999, dated 2004)
